Reference: ChEMBL document CHEMBL1201862, “PubChem BioAssay data set” (2004)
Active and inactive are the calls of the source.

How the values were obtained:
[1] = biological target: T1, Sentrin-specific protease 7 (Homo sapiens, UniProt Q9BQF6); test: SENP7 protease inhibitors, SAR follow-up, biochemical, luminescence, set 2 (AID 588600); assay type: functional
T1 sequence (Q9BQF6 whole entry): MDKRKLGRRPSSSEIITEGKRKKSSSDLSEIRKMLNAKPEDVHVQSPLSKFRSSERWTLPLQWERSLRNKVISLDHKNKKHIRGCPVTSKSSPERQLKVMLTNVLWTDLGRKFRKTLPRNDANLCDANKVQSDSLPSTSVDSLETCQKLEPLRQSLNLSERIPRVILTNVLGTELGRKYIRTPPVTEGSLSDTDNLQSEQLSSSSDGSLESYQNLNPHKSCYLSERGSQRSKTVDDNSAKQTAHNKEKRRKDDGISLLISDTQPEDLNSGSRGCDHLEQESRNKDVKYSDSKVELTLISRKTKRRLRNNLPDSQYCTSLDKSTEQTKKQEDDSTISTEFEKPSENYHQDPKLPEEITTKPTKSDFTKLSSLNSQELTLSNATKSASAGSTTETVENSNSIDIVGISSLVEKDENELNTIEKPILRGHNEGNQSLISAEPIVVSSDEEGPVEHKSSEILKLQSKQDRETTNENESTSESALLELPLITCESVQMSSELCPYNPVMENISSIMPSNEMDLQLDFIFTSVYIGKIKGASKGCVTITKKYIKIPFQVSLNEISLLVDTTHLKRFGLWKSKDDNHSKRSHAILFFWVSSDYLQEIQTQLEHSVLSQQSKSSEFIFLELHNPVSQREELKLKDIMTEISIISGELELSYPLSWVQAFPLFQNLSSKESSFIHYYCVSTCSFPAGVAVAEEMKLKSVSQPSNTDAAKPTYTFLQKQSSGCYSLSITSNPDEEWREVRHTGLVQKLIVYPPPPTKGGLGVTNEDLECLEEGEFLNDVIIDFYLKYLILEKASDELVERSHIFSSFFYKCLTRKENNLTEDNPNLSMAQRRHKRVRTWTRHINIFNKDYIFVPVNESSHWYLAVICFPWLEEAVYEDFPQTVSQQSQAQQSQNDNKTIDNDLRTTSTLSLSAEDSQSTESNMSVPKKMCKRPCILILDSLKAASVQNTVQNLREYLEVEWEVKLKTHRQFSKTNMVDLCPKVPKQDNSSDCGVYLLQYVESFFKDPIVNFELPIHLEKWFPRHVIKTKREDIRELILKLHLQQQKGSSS

Caspase-3 = biological target: T2, Caspase-3 (Homo sapiens, UniProt P42574); test: caspase-3 inhibitors as off-family protease, SAR follow-up, selectivity assay for SENP protease inhibitor project, biochemical, luminescence, set 2 (AID 588599); assay type: functional
T2 sequence (P42574 whole entry): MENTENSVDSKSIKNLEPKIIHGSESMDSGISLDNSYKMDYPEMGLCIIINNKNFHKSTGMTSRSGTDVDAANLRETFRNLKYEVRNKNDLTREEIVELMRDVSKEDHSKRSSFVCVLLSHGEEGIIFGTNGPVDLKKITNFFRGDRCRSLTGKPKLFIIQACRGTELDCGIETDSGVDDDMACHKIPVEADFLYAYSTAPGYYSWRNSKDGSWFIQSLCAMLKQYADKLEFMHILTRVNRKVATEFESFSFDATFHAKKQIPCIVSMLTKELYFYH

[2] = biological target: T3, Sentrin-specific protease 8 (Homo sapiens, UniProt Q96LD8); test: SENP8 protease inhibitors, SAR follow-up, biochemical, luminescence, set 2 (AID 588601); assay type: functional
T3 sequence (Q96LD8 whole entry): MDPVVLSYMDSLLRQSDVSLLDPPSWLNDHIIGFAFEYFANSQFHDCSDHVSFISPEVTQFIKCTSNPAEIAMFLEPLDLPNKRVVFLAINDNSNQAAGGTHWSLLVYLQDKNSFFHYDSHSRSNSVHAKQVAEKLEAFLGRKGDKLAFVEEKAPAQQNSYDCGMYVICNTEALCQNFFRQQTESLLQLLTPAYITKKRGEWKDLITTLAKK

[3] = biological target: T4, Sentrin-specific protease 6 (Homo sapiens, UniProt Q9GZR1); test: SENP6 protease inhibitors, SAR follow-up, biochemical, luminescence, set 2 (AID 588598); assay type: functional
T4 sequence (Q9GZR1 whole entry): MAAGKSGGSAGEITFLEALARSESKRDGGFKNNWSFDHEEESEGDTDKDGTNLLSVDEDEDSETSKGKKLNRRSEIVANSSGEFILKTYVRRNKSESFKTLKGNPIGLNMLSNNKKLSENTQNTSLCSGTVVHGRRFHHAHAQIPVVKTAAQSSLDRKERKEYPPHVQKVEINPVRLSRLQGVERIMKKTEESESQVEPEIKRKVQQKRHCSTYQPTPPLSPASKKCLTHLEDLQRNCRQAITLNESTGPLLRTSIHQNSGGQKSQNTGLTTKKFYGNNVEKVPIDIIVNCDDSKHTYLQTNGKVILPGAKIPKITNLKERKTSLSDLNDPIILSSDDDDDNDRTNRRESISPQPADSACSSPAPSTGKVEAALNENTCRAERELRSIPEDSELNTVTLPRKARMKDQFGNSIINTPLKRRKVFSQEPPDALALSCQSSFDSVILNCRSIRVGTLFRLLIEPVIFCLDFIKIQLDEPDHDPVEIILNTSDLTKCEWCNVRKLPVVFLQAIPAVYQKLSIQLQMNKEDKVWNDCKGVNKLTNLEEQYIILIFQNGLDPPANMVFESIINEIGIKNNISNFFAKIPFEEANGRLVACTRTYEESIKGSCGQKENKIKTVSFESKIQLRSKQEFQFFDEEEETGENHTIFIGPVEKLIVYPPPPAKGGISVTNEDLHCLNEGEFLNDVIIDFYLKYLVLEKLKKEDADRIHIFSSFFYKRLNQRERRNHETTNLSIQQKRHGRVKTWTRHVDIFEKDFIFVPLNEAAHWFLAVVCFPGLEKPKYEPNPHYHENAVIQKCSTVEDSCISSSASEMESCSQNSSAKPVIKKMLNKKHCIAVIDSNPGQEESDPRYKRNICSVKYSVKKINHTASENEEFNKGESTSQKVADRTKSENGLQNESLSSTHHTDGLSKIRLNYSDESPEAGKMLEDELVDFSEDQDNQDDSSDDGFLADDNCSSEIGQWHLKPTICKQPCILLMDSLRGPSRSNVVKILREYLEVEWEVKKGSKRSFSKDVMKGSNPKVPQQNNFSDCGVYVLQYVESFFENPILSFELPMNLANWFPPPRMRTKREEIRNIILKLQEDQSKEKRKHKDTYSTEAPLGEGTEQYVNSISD

[4] = inhibitors of intracellular T. cruzi replication, confirmation, NIH3T3 host cells, beta-gal luminescence (AID 2044); assay type: functional, cell-based;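 further: intracellular parasites grown in NIH/3T3 mouse fibroblasts as host cells; luminescent beta-galactosidase reporter signal from transgenic T. cruzi replicating inside host cells; inhibitors lower the luminescence signal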
Protein RecA = biological target: T5, Protein RecA (Mycobacterium tuberculosis, UniProt P9WHJ3); test: Fluorescence Cell-Free Homogeneous Dose Retest to Identify Inhibitors of RecA-Intein Splicing Activity. [Related pubchem assays (depositor defined):AID2097, AID2223, AID489010, AID492950]; assay type: functional
T5 sequence (P9WHJ3 whole entry): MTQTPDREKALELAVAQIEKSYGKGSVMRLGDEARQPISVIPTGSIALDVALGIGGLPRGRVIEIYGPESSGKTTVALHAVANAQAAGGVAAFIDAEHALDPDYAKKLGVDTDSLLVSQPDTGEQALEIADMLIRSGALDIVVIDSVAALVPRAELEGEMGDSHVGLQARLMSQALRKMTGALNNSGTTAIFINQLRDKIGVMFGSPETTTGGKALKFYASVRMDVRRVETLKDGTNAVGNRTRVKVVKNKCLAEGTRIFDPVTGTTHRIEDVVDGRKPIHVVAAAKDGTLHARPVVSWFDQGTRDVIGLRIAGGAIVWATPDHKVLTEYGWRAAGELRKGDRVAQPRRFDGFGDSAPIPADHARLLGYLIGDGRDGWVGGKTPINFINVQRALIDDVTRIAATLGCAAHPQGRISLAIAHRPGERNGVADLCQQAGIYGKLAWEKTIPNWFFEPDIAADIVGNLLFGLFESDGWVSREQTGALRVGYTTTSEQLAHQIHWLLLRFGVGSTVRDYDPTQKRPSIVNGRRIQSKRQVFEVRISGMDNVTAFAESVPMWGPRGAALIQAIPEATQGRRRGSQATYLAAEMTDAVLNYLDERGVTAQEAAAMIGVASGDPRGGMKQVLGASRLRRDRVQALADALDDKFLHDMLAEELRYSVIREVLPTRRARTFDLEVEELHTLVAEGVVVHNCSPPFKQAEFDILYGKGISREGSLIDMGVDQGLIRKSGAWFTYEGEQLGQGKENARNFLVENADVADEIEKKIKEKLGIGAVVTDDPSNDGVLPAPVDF

[5] = cytotoxicity toward NIH3T3 fibroblasts, dose response, counter-screen, cell-based, ATP luminescence, mouse fibroblasts (AID 2010); assay type: functional;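 further: cells exposed to compound for about 90 hours before reading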
CHO = test: cytotoxicity in TLR9-MyD88 CHO cells, dose response, cytotoxicity control for TLR9-MyD88 binding inhibitor project, cell-based, luminescence (AID 588339); assay type: functional, hamster; settings: Cricetulus griseus;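 further: CHO cells stably coexpressing TLR9 and MyD88 fusions from primary screen; compound exposure lasted 48 hours before viability readout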
Paired box protein Pax-8 = Paired box protein Pax-8 (Homo sapiens, UniProt Q06710); test: inhibitors of PAX8-driven TPO luciferase reporter, dose response, RMG-I cells, cherry-pick (AID 687027); assay type: functional, cell-based;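 further: luciferase reporter driven by Pax8 target thyroperoxidase promoter measured by SteadyGlo luminescence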
Chain of Paired box protein Pax-8 (Q06710 whole entry): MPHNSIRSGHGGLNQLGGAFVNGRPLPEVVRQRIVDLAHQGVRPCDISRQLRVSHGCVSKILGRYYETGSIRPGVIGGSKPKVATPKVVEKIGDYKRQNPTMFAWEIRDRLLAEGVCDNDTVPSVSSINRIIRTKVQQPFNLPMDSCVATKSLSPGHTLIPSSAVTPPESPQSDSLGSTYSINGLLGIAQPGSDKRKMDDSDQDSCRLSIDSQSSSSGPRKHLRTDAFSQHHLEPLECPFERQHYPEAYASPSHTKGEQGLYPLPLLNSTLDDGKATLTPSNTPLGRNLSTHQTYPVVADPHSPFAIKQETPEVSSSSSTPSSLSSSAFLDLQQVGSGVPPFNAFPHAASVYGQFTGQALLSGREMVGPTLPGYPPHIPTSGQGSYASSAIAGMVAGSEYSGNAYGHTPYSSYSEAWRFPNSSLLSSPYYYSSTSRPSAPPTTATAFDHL

[6] = biological target: T6, Replicative DNA helicase DnaB (Mycobacterium tuberculosis, UniProt P9WMR3); test: DnaB intein splicing inhibitors, dose response, biochemical, cell-free fluorescence (AID 449749); assay type: functional
T6 sequence (P9WMR3 whole entry): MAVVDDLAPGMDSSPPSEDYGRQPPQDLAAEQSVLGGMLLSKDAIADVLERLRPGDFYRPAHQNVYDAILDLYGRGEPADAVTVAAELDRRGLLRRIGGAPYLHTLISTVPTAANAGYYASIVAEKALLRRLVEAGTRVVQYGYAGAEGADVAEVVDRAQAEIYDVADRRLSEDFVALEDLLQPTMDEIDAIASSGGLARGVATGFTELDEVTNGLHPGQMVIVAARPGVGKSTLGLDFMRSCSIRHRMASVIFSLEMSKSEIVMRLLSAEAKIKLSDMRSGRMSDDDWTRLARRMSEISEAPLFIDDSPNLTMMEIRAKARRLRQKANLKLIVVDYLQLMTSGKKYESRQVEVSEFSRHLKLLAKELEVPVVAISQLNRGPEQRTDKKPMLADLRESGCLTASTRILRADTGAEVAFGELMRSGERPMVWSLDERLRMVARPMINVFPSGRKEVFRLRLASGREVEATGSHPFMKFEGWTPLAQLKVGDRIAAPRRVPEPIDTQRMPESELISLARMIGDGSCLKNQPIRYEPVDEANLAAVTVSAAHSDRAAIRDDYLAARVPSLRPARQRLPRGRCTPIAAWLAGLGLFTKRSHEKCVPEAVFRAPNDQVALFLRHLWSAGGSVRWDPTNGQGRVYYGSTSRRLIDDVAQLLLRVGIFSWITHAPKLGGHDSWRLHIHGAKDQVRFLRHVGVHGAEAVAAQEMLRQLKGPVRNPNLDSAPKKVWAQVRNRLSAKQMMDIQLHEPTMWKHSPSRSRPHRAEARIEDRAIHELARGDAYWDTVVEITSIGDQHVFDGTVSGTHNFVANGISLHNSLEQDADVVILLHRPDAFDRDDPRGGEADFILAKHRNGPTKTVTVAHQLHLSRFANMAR

[7] = biological target: T7, Heat shock factor protein 1 (Mus musculus, UniProt P38532); test: inhibition of MG132-induced HSE-luciferase signal, confirmation, cell-based, NIH3T3, luminescence, dose retest (AID 2382); assay type: functional;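 further: NIH3T3 fibroblasts with HSF1-driven luciferase reporter stressed by proteasome inhibitor MG132; luminescence from HSF1-driven luciferase expression after 8 hours of MG132 stress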
T7 sequence (P38532 whole entry): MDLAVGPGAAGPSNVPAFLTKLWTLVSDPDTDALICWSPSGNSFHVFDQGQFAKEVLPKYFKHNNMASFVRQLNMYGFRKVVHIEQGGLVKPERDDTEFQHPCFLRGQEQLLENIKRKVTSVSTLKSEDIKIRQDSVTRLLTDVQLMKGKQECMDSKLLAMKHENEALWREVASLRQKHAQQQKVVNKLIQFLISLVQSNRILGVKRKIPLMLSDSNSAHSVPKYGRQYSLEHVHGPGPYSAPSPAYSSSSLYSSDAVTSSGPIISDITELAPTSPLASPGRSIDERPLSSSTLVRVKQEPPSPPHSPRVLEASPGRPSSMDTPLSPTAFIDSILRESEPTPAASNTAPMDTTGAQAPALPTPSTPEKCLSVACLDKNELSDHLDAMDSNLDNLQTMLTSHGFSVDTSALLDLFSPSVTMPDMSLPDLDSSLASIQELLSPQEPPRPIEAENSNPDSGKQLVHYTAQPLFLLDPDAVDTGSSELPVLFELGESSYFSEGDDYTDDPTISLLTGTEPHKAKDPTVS

Beta Lactamase = Beta Lactamase (Pseudomonas aeruginosa, UniProt Q932Y6); test: beta-lactamase reporter inhibitor potency, dose response, artefact control for TLR9-MyD88 binding inhibitor project, BLA reporter cells, FRET fluorescence (AID 588341); assay type: cell-based;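 further: cell based assay in CHO-K1 cells stably expressing beta-lactamase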
Chain of Beta Lactamase (Q932Y6 whole entry): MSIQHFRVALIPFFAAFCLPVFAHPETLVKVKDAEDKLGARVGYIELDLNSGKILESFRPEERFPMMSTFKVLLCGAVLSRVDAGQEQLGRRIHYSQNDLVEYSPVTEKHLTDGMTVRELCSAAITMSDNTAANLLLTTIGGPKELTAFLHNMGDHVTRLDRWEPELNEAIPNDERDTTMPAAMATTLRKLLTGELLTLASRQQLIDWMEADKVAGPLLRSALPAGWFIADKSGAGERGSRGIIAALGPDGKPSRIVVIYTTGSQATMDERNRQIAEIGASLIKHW

HEK293 [8] = test: cytotoxicity in HEK293T NF-kB-Luc cells, SAR follow-up, cytotoxicity control for NF-kB activator project, cell-based, resazurin fluorescence (AID 493251); assay type: functional; settings: Homo sapiens
HEK293 [9] = test: SAR Analysis of small molecule inhibitors of both B-cell and T-cell specific antigen receptor-induced NF-kB activation in a HEK-293T cell line using a luminescence assay. [Related pubchem assays (depositor defined):AID435003, AID435022, AID465, AID489019, AID489029]; assay type: functional, cell-based; settings: Homo sapiens
Jurkat = test: SAR Analysis of small molecule inhibitors of both B-cell and T-cell specific antigen receptor-induced NF-kB activation in a Jurkat cell line using a luminescence assay. [Related pubchem assays (depositor defined):AID435003, AID435022, AID465, AID489029]; assay type: functional, cell-based; settings: Homo sapiens

CC(=O)Nc1ccc2nc(NC(=O)c3n[nH]c4ccccc34)sc2c1
IC50 [1]: > 99 µM (inactive) | IC50 (Caspase-3): 4.41 µM (active) | IC50 [2]: 40.3 µM (active) | IC50 [3]: > 99 µM (inactive)

Cn1c(=O)c([N+](=O)[O-])c(Cl)c2ccccc21
EC50 [4]: 1.87 µM (active) | EC50 (Protein RecA): 4.25 µM (active) | EC50 [5]: 3.97 µM (active) | IC50 (CHO): 1.18 µM (active) | AC50 (Paired box protein Pax-8): 6.65 µM (active) | AC50 [6]: 5.18 µM (active) | EC50 [7]: 4.3 µM (active) | IC50 (Beta Lactamase): 17.8 µM (inactive)

Cc1ccc2cccc(N)c2n1
IC50 (HEK293 [8]): > 80 µM (inactive) | IC50 (HEK293 [9]): > 79 µM (inactive) | IC50 (Jurkat): > 79 µM (inactive)
